The text below walks through data of ChEMBL document CHEMBL2086221, “Armeniaspiroles, a new class of antibacterials: Antibacterial activities and total synthesis of 5-chloro-Armeniaspirole A” (Bioorg Med Chem Lett, 2012).

SMILES strings stand for the structures. ≈ marks a conversion by molar mass, not a printed value. Calls of active or inactive are those of the source. No cut-off for these calls is given here.

Series [1] can be described thus: Solubility of the compound in PBS buffer at pH 7.4. In kind it is physicochemical.
Series [2] is described as follows: Chemical stability of the compound in PBS buffer up to 24 hrs at pH 7.4. In kind it is physicochemical. The following applies: pH 7.4, 24 h.
The subject of series [3] is Staphylococcus aureus. The series is described as follows: Antibacterial activity against methicillin-resistant Staphylococcus aureus ATCC 33592 at >1 ug/mL after 48 hrs. In kind it is functional, organism-based.
Series [4] concerns Streptococcus pneumoniae. The series is described as follows: Antibacterial activity against penicillin-resistant Streptococcus pneumoniae DSM 11865 at >1 ug/mL after 48 hrs. The format is functional, organism-based.
Series [5] concerns Enterococcus faecium. The series is described as follows: Antibacterial activity against vancomycin-resistant Enterococcus faecium DSM 17050 at >1 ug/mL after 48 hrs. In kind it is functional, organism-based.
The subject of series [6] is Escherichia coli. Briefly: Antibacterial activity against Escherichia coli ATCC 35218 expressing LacR at >1 ug/mL after 48 hrs. In kind it is functional, organism-based.
For series [7], the system named is Pseudomonas aeruginosa. Briefly: Antibacterial activity against Pseudomonas aeruginosa ATCC 27853 at >1 ug/mL after 48 hrs. In kind it is functional, organism-based.
Series [8] deals with Staphylococcus aureus. Briefly: Bacteriostatic activity against methicillin-resistant Staphylococcus aureus ATCC 33592 by time kill study in presence of fetal calf serum. In kind it is functional, organism-based.
Series [9] has as its system Streptococcus pneumoniae. The series is described as follows: Bacteriostatic activity against penicillin-resistant Streptococcus pneumoniae DSM 11865 by time kill study in presence of fetal calf serum. In kind it is functional, organism-based.
The test system of series [10] is Enterococcus faecium. The series is described as follows: Bacteriostatic activity against vancomycin-resistant Enterococcus faecium DSM 17050 by time kill study in presence of fetal calf serum. In kind it is functional, organism-based.
For series [11], the system named is Escherichia coli. The series is described as follows: Bacteriostatic activity against Escherichia coli ATCC 35218 expressing LacR by time kill study in presence of fetal calf serum. The format is functional, organism-based.
Series [12] has as its system Pseudomonas aeruginosa. Briefly: Bacteriostatic activity against Pseudomonas aeruginosa ATCC 27853 by time kill study in presence of fetal calf serum. In kind it is functional, organism-based.
Series [13] deals with Streptococcus pneumoniae. The series is described as follows: Antibacterial activity against penicillin-resistant Streptococcus pneumoniae DSM 11865. In kind it is functional.
In series [14] the test system is Staphylococcus aureus. Briefly: Antibacterial activity against methicillin-resistant Staphylococcus aureus ATCC 33592. In kind it is functional.
Series [15] concerns Enterococcus faecium. Briefly: Antibacterial activity against vancomycin-resistant Enterococcus faecium DSM 17050. In kind it is functional.
In series [16] the test system is Escherichia coli. Briefly: Antibacterial activity against Escherichia coli ATCC 35218 expressing LacR. In kind it is functional.
In series [17] the test system is Pseudomonas aeruginosa. The series is described as follows: Antibacterial activity against Pseudomonas aeruginosa ATCC 27853. In kind it is functional.
For series [18], the system named is Escherichia coli. Briefly: Bacteriostatic activity against Escherichia coli ATCC 35218 expressing LacR by time kill study. The format is functional, organism-based.
The subject of series [19] is Pseudomonas aeruginosa. Briefly: Bacteriostatic activity against Pseudomonas aeruginosa ATCC 27853 by time kill study. The format is functional, organism-based.
The mark [20] stands for this setting: Streptococcus pneumoniae, DSM 11865.
Setting [21] is: Staphylococcus aureus, ATCC 33592.
The mark [22] stands for this setting: Enterococcus faecium, DSM 17050.

Compound `CC(C)CCCc1c(O)ccc2c1O[C@]1(C2=O)C(Cl)=C(Cl)C(=O)N1C` [ARMENIASPIROLE B] showed a solubility in series [1] of 10 µg/mL (≈ 26 µM). Also, the Stability entry in [2] is listed as “Stable”. In addition, the result in the series on Staphylococcus aureus [3], in the series on Streptococcus pneumoniae [4], with Enterococcus faecium [5], in the series on Escherichia coli [6] and in the series with Pseudomonas aeruginosa [7] was Active. In addition, the outcome in the series with Staphylococcus aureus [8], in the series with Streptococcus pneumoniae [9], with Enterococcus faecium [10], with Escherichia coli [11] and with Pseudomonas aeruginosa [12] was inactive.
Regarding `CCCCCCc1c(O)c(Cl)cc2c1O[C@]1(C2=O)C(Cl)=C(Cl)C(=O)N1C` (stereo in doubt; form 2), the IC80 stood at 0.4 µM in the series with Streptococcus pneumoniae [13], 3.7 µM with Staphylococcus aureus [14] and 8.2 µM in the series with Enterococcus faecium [15].
In the case of `CCCCCCc1c(O)c(Cl)cc2c1OC1(C2=O)C(Cl)=C(Cl)C(=O)N1C` (racemic), the IC80 in the series on Streptococcus pneumoniae [13] (setting [20]) was 1.3 µM; with Staphylococcus aureus [14] (setting [21]) it was 3.1 µM; in the series with Enterococcus faecium [15] (setting [22]) it was 5.2 µM; with Escherichia coli [16] it was over 30 µM; in the series on Pseudomonas aeruginosa [17], over 30 µM. Moreover, the result with Staphylococcus aureus [3], in the series on Streptococcus pneumoniae [4], with Enterococcus faecium [5], with Escherichia coli [6] and with Pseudomonas aeruginosa [7] was Active. Also, the result in the series on Staphylococcus aureus [8], in the series with Streptococcus pneumoniae [9], with Enterococcus faecium [10], in the series with Escherichia coli [11] and in the series on Pseudomonas aeruginosa [12] was inactive.
For `CCCCCCc1c(O)c(Cl)cc2c1O[C@]1(C2=O)C(Cl)=C(Cl)C(=O)N1C` (stereo in doubt; form 1) [listing 1 of 2 here], the Activity result in the series with Escherichia coli [18] and in the series with Pseudomonas aeruginosa [19] was “Dose-dependent effect” each time. Also, the outcome in the series with Staphylococcus aureus [3], in the series on Streptococcus pneumoniae [4], in the series with Enterococcus faecium [5], in the series with Escherichia coli [6] and in the series on Pseudomonas aeruginosa [7] was Active. Moreover, the outcome in the series on Staphylococcus aureus [8], in the series with Streptococcus pneumoniae [9], in the series with Enterococcus faecium [10], in the series with Escherichia coli [11] and in the series with Pseudomonas aeruginosa [12] was inactive.
For the compound `CC[C@H](C)CCCc1c(O)ccc2c1O[C@]1(C2=O)C(Cl)=C(Cl)C(=O)N1C` [ARMENIASPIROLE C], the solubility in series [1] came out at 5 µg/mL (≈ 12.6 µM). In addition, in [2], the Stability result is “Stable”. Also, the outcome in the series with Staphylococcus aureus [3], in the series with Streptococcus pneumoniae [4], in the series with Enterococcus faecium [5], in the series on Escherichia coli [6] and in the series with Pseudomonas aeruginosa [7] was Active. Besides, the outcome with Staphylococcus aureus [8], with Streptococcus pneumoniae [9], in the series with Enterococcus faecium [10], in the series with Escherichia coli [11] and in the series on Pseudomonas aeruginosa [12] was inactive.
In the case of `CCCCCCc1c(O)c(Cl)cc2c1O[C@@]1(C2=O)C(Cl)=C(Cl)C(=O)N1C`, the IC80 in the series with Streptococcus pneumoniae [13] (setting [20]) is 0.5 µM; in the series with Staphylococcus aureus [14] (setting [21]), 1.4 µM; in the series with Enterococcus faecium [15] (setting [22]), 6.7 µM; in the series with Escherichia coli [16], over 30 µM; with Pseudomonas aeruginosa [17], over 30 µM. For the same compound, the result in the series with Staphylococcus aureus [3], in the series with Streptococcus pneumoniae [4], in the series with Enterococcus faecium [5], in the series with Escherichia coli [6] and in the series on Pseudomonas aeruginosa [7] was Active. Besides, the outcome with Staphylococcus aureus [8], with Streptococcus pneumoniae [9], in the series on Enterococcus faecium [10], in the series on Escherichia coli [11] and in the series on Pseudomonas aeruginosa [12] was inactive.
`CCCCCCc1c(O)c(Cl)cc2c1O[C@]1(C2=O)C(Cl)=C(Cl)C(=O)N1C` (stereo in doubt; form 1) [listing 2 of 2 here]: the IC80 with Streptococcus pneumoniae [13] was 1.7 µM; in the series with Staphylococcus aureus [14] (setting [21]) it was 5.1 µM; with Enterococcus faecium [15] (setting [22]), 8.5 µM; in the series on Escherichia coli [16], over 30 µM; in the series on Pseudomonas aeruginosa [17] it was over 30 µM.
